pIC50: −log10 of the molar value. “And” between values parts separate entries of the source, which are not always exact repeats. Equal values may be shown once.
Test system: 598228-144-R-J1-PDC complex spheroids, viability
Experiment: Anticancer human tumor 598228-144-R-J1-PDC patient-derived serous endometrial adenocarcinoma cell line growth inhibition [CLK]
Details: for viability, T/C: stronger effect = lower value
Summary of the method: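 Multi-cell-type spheroids combined patient-derived tumor cells with HUVEC endothelial cells and human mesenchymal stem cells. Paired agents were dosed in half-log steps down from about clinical Cmax, or from 10 microM where Cmax was unknown.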

[1] = curve of first compound, second compound 0.0316 µM
[2] = curve of first compound, second compound 0.1 µM
[3] = curve of first compound, second compound 0.316 µM
[4] = curve of first compound, second compound 1 µM
[5] = curve of first compound, second compound 3.16 µM
[6] = curve of first compound, second compound 10 µM
[7] = second compound 0.0316 µM, first compound 0.0316 µM
[8] = second compound 0.0316 µM, first compound 0.1 µM
[9] = second compound 0.0316 µM, first compound 0.316 µM
[10] = second compound 0.0316 µM, first compound 1 µM
[11] = second compound 0.0316 µM, first compound 3.16 µM
[12] = second compound 0.0316 µM, first compound 10 µM
[13] = second compound 0.1 µM, first compound 0.0316 µM
[14] = second compound 0.1 µM, first compound 0.1 µM
[15] = second compound 0.1 µM, first compound 0.316 µM
[16] = second compound 0.1 µM, first compound 1 µM
[17] = second compound 0.1 µM, first compound 3.16 µM
[18] = second compound 0.1 µM, first compound 10 µM
[19] = second compound 0.316 µM, first compound 0.0316 µM
[20] = second compound 0.316 µM, first compound 0.1 µM
[21] = second compound 0.316 µM, first compound 0.316 µM
[22] = second compound 0.316 µM, first compound 1 µM
[23] = second compound 0.316 µM, first compound 3.16 µM
[24] = second compound 0.316 µM, first compound 10 µM
[25] = second compound 1 µM, first compound 0.0316 µM
[26] = second compound 1 µM, first compound 0.1 µM
[27] = second compound 1 µM, first compound 0.316 µM
[28] = second compound 1 µM, first compound 1 µM
[29] = second compound 1 µM, first compound 3.16 µM
[30] = second compound 1 µM, first compound 10 µM
[31] = second compound 3.16 µM, first compound 0.0316 µM
[32] = second compound 3.16 µM, first compound 0.1 µM
[33] = second compound 3.16 µM, first compound 0.316 µM
[34] = second compound 3.16 µM, first compound 1 µM
[35] = second compound 3.16 µM, first compound 3.16 µM
[36] = second compound 3.16 µM, first compound 10 µM
[37] = second compound 10 µM, first compound 0.0316 µM
[38] = second compound 10 µM, first compound 0.1 µM
[39] = second compound 10 µM, first compound 0.316 µM
[40] = second compound 10 µM, first compound 1 µM
[41] = second compound 10 µM, first compound 3.16 µM
[42] = second compound 10 µM, first compound 10 µM
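Note: spheroids exposed to compounds for seven days before readout.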
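Throughout, for viability, T/C: 100% = DMSO vehicle control wells.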

COc1ccc([C@@H](O)c2cc(-c3ncnc4cc(N5CCOCC5)ccc34)c(F)cc2Cl)nn1 + CN1CCN(c2cc(C(=O)Nc3cc4cc(-c5cnn(C)c5)ccc4cn3)ccn2)CC1
pIC50 [1]: 5.08 | pIC50 [2]: 5.27 | pIC50 [3]: > 7.50 | pIC50 [4]: > 7.50 | pIC50 [5]: > 7.50 | pIC50 [6]: > 7.50 | viability, T/C [7]: 122% | viability, T/C [8]: 123% | viability, T/C [9]: 105% | viability, T/C [10]: 92.7% | viability, T/C [11]: 65.3% | viability, T/C [12]: 47.4% | viability, T/C [13]: 123% | viability, T/C [14]: 123% | viability, T/C [15]: 89% | viability, T/C [16]: 88.8% | viability, T/C [17]: 59.5% | viability, T/C [18]: 36.8% | viability, T/C [19]: 15.2% | viability, T/C [20]: 15.1% | viability, T/C [21]: 15.9% | viability, T/C [22]: 9.86% | viability, T/C [23]: 7.76% | viability, T/C [24]: 5.23% | viability, T/C [25]: 1.49% | viability, T/C [26]: 1.33% | viability, T/C [27]: 1.57% | viability, T/C [28]: 1.3% | viability, T/C [29]: 1.12% | viability, T/C [30]: 3.63% | viability, T/C [31]: 1.56% | viability, T/C [32]: 2.15% | viability, T/C [33]: 1.78% | viability, T/C [34]: 2.12% | viability, T/C [35]: 1.65% | viability, T/C [36]: 2.04% | viability, T/C [37]: 0.95% | viability, T/C [38]: 0.79% | viability, T/C [39]: 4.21% | viability, T/C [40]: 1.31% | viability, T/C [41]: 3.59% | viability, T/C [42]: 3.19%

Nc1ccccc1NC(=O)c1ccc(CNC(=O)OCc2cccnc2)cc1 + CNC(=O)c1ccc(Nc2nc(OC3CCCC3)c3c(-c4ccc5nc(C)oc5c4)c[nH]c3n2)c(OC)c1
pIC50 [1]: 5.72 | pIC50 [2]: 5.71 | pIC50 [3]: 5.70 | pIC50 [4]: 5.66 | pIC50 [5]: 5.88 | pIC50 [6]: 5.99 | viability, T/C [7]: 115% | viability, T/C [8]: 105% | viability, T/C [9]: 101% | viability, T/C [10]: 83% | viability, T/C [11]: 23.1% | viability, T/C [12]: 12.2% | viability, T/C [13]: 111% | viability, T/C [14]: 97.8% | viability, T/C [15]: 91.4% | viability, T/C [16]: 79.7% | viability, T/C [17]: 28.4% | viability, T/C [18]: 7.48% | viability, T/C [19]: 111% | viability, T/C [20]: 105% | viability, T/C [21]: 93% | viability, T/C [22]: 66.6% | viability, T/C [23]: 39% | viability, T/C [24]: 4.74% | viability, T/C [25]: 110% | viability, T/C [26]: 81.9% | viability, T/C [27]: 88.7% | viability, T/C [28]: 65% | viability, T/C [29]: 45.6% | viability, T/C [30]: 6.12% | viability, T/C [31]: 91.6% | viability, T/C [32]: 86.5% | viability, T/C [33]: 70.2% | viability, T/C [34]: 55.1% | viability, T/C [35]: 34.4% | viability, T/C [36]: 4.38% | viability, T/C [37]: 100% | viability, T/C [38]: 88.9% | viability, T/C [39]: 73.3% | viability, T/C [40]: 50.5% | viability, T/C [41]: 25.8% | viability, T/C [42]: 4.15%

CC(=O)O[C@H]1C(=O)[C@@]2(C)[C@H]([C@H](OC(=O)c3ccccc3)[C@]3(O)C[C@H](OC(=O)[C@H](O)[C@@H](NC(=O)c4ccccc4)c4ccccc4)C(C)=C1C3(C)C)[C@]1(OC(C)=O)CO[C@@H]1C[C@@H]2O
viability, T/C (compound 0.0316 µM): 35.4% and 37% | viability, T/C (compound 0.1 µM): 33.6% and 37% | viability, T/C (compound 0.316 µM): 31% and 30.4% | viability, T/C (compound 1 µM): 25.1% and 34.2% | viability, T/C (compound 3.16 µM): 32.1% and 36.1% | viability, T/C (compound 10 µM): 32.5% and 47.5% | pIC50 (curve of compound): > 7.50

CCc1c2c(nc3ccc(O)cc13)-c1cc3c(c(=O)n1C2)COC(=O)[C@]3(O)CC + CN1CCN(c2cc(C(=O)Nc3cc4cc(-c5cnn(C)c5)ccc4cn3)ccn2)CC1
pIC50 [1]: 7.17 | pIC50 [2]: 7.02 | pIC50 [3]: > 8.50 | pIC50 [4]: > 8.50 | pIC50 [5]: > 8.50 | pIC50 [6]: > 8.50 | viability, T/C (second compound 0.0316 µM, first compound 0.00316 µM): 104% | viability, T/C (second compound 0.0316 µM, first compound 0.01 µM): 91.3% | viability, T/C [7]: 73.8% | viability, T/C [8]: 39.2% | viability, T/C [9]: 16.6% | viability, T/C [10]: 13.1% | viability, T/C (second compound 0.1 µM, first compound 0.00316 µM): 152% | viability, T/C (second compound 0.1 µM, first compound 0.01 µM): 121% | viability, T/C [13]: 84% | viability, T/C [14]: 47.4% | viability, T/C [15]: 23.3% | viability, T/C [16]: 9.49% | viability, T/C (second compound 0.316 µM, first compound 0.00316 µM): 17.4% | viability, T/C (second compound 0.316 µM, first compound 0.01 µM): 17.4% | viability, T/C [19]: 18.3% | viability, T/C [20]: 13.1% | viability, T/C [21]: 5.94% | viability, T/C [22]: 5.35% | viability, T/C (second compound 1 µM, first compound 0.00316 µM): 1.34% | viability, T/C (second compound 1 µM, first compound 0.01 µM): 0.98% | viability, T/C [25]: 2.66% | viability, T/C [26]: 0.5% | viability, T/C [27]: 2.92% | viability, T/C [28]: 4.75% | viability, T/C (second compound 3.16 µM, first compound 0.00316 µM): 1.44% | viability, T/C (second compound 3.16 µM, first compound 0.01 µM): 1.88% | viability, T/C [31]: 0.95% | viability, T/C [32]: 1.2% | viability, T/C [33]: 2.83% | viability, T/C [34]: 4.75% | viability, T/C (second compound 10 µM, first compound 0.00316 µM): 0.83% | viability, T/C (second compound 10 µM, first compound 0.01 µM): 0.62% | viability, T/C [37]: 2.12% | viability, T/C [38]: 0.62% | viability, T/C [39]: 6.02% | viability, T/C [40]: 4.41%
